Here are results for 7 compounds from PubChem BioAssay (NCI).

Some test systems named below: U251 CNS; MDA-MB-231 breast; OVCAR-3 ovarian; MALME-3M melanoma; HCC-2998 colon; NCI-H226 lung; TK-10 renal; A549 NSCLC; 786-0 renal; NCI/ADR-RES ovarian.
Test in all cases: NCI-60 cell line screen, 48 h

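Each compound was tested at five concentrations against cells in 96-well plates for 48 hours. At the GI50, growth is halved. TGI is the concentration that stops growth completely.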 A value given as a limit tells only on which side of the number the result lay.

As for `CC(C)c1ccc(C(c2c(O)c3ccccc3oc2=O)c2c(O)c3ccccc3oc2=O)cc1`, the TGI with U251 CNS was 30.1 µM; in the test on MDA-MB-231 breast, 45.6 µM; in the test on OVCAR-3 ovarian, 37.9 µM; in the test on MALME-3M melanoma, 38.4 µM; in the test with HCC-2998 colon, 35.2 µM; in the test with NCI-H226 lung, 42.2 µM. For the same compound, the TGI in the test on TK-10 renal is 68 µM; in the test with A549 NSCLC it was 45.7 µM; in the test on 786-0 renal it was 40.9 µM; in the test with NCI/ADR-RES ovarian it was 65.9 µM.
For the compound `COc1cc2c(cc1OC)-c1c(c3ccc([N+](=O)[O-])cc3c(=O)n1CCCN=[N+]=[N-])C2=O`, the GI50 is 11.6 µM in the test on U251 CNS; > 100 µM with MDA-MB-231 breast; > 100 µM with OVCAR-3 ovarian; 83.9 µM in the test with HCC-2998 colon; > 100 µM with NCI-H226 lung; > 100 µM in the test on TK-10 renal. Further, the GI50 with A549 NSCLC was 56.6 µM; in the test with 786-0 renal, 50.4 µM; with NCI/ADR-RES ovarian, 31.7 µM. The TGI in the test with U251 CNS, in the test with MDA-MB-231 breast, with OVCAR-3 ovarian, in the test with HCC-2998 colon, in the test on NCI-H226 lung and with TK-10 renal was > 100 µM throughout. The TGI in the test with A549 NSCLC, with 786-0 renal and in the test with NCI/ADR-RES ovarian was > 100 µM each time.
As to `CCN(CC)CCNc1ccc(N=Nc2cnc3ccccc3c2)c2ccccc12`, the GI50 with U251 CNS is 1.7 µM; with MDA-MB-231 breast, 1.12 µM; in the test with OVCAR-3 ovarian it was 1.78 µM; in the test on HCC-2998 colon, 1.75 µM; in the test with NCI-H226 lung it was 1.71 µM; in the test on TK-10 renal it was 2.1 µM. The GI50 in the test with A549 NSCLC was 1.92 µM; in the test with 786-0 renal, 1.93 µM; in the test with NCI/ADR-RES ovarian, 2.29 µM. The TGI was determined as 3.2 µM in the test with U251 CNS; 2.38 µM with MDA-MB-231 breast; 3.43 µM with OVCAR-3 ovarian; 3.16 µM in the test on HCC-2998 colon; 3.66 µM in the test on NCI-H226 lung; 3.87 µM in the test on TK-10 renal. Besides, the TGI in the test with A549 NSCLC was found to be 3.5 µM; in the test with 786-0 renal, 3.35 µM; in the test with NCI/ADR-RES ovarian, 5.15 µM.
On to `CCCCCCCCCCCCSC1=CC(=O)C=CC1=O`, for which the GI50 was 0.311 µM in the test with U251 CNS; 5.36 µM in the test on MDA-MB-231 breast; 1.98 µM in the test on OVCAR-3 ovarian; 13.1 µM in the test with MALME-3M melanoma; 15.2 µM in the test with HCC-2998 colon; 6.58 µM in the test on NCI-H226 lung. Moreover, the GI50 in the test with TK-10 renal is 16.3 µM; in the test with A549 NSCLC, 9.46 µM; in the test with 786-0 renal, 9.94 µM; in the test on NCI/ADR-RES ovarian it was 1.65 µM. Moreover, the TGI in the test on U251 CNS was 4.57 µM; in the test on MDA-MB-231 breast, 17.1 µM; with OVCAR-3 ovarian, 7.91 µM; in the test with MALME-3M melanoma, > 50 µM; in the test with HCC-2998 colon, > 50 µM; with NCI-H226 lung it was 19 µM. In addition, the TGI was 37.4 µM in the test on TK-10 renal, > 50 µM in the test on A549 NSCLC, > 33.5 µM with 786-0 renal and > 20.6 µM with NCI/ADR-RES ovarian.
Take `O=C(C(=O)c1cccnc1)c1cccnc1`: the GI50 with U251 CNS, in the test with MDA-MB-231 breast, in the test with OVCAR-3 ovarian, in the test with MALME-3M melanoma, in the test with HCC-2998 colon and in the test with NCI-H226 lung was > 100 µM throughout. In addition, the GI50 in the test on TK-10 renal, with A549 NSCLC, with 786-0 renal and in the test on NCI/ADR-RES ovarian was > 100 µM in each case. Further, the TGI in the test with U251 CNS, in the test with MDA-MB-231 breast, with OVCAR-3 ovarian, with MALME-3M melanoma, with HCC-2998 colon and in the test with NCI-H226 lung was > 100 µM in each case. In addition, the TGI in the test on TK-10 renal, in the test on A549 NSCLC, with 786-0 renal and with NCI/ADR-RES ovarian was > 100 µM throughout.
As for `CN1CCN(C(=O)[C@@]2(C)CC[C@]3(C)CC[C@]4(C)C(=CC[C@@H]5[C@@]6(C)CC[C@H](OC(=O)c7cccnc7)C(C)(C)[C@@H]6CC[C@]54C)[C@@H]3C2)CC1`, the GI50 in the test on U251 CNS was 1.57 µM; with MDA-MB-231 breast it was 2.03 µM; with OVCAR-3 ovarian, 1.74 µM; with MALME-3M melanoma, 1.78 µM; in the test on HCC-2998 colon, 1.81 µM; with NCI-H226 lung it was 10.2 µM. Also, the GI50 is 1.79 µM in the test on TK-10 renal, 1.71 µM in the test with A549 NSCLC, 1.75 µM in the test on 786-0 renal and 1.75 µM in the test on NCI/ADR-RES ovarian. For the same compound, the TGI was found to be 2.95 µM in the test with U251 CNS; 3.95 µM with MDA-MB-231 breast; 3.29 µM in the test with OVCAR-3 ovarian; 3.54 µM with MALME-3M melanoma; 3.33 µM with HCC-2998 colon; 24 µM in the test on NCI-H226 lung. Moreover, the TGI in the test on TK-10 renal worked out at 3.31 µM; in the test on A549 NSCLC, 3.28 µM; in the test on 786-0 renal, 3.22 µM; in the test with NCI/ADR-RES ovarian, 3.72 µM.
On to `O=C1c2c(c3c4ccccc4n(CCCCCCN4CCOCC4)c3c3[nH]c4ccccc4c23)C(=O)N1O`, for which the GI50 was 1.68 µM with U251 CNS; 2.17 µM in the test on MDA-MB-231 breast; 16.3 µM with OVCAR-3 ovarian; 1.74 µM in the test on MALME-3M melanoma; 9.6 µM with HCC-2998 colon; > 32.5 µM in the test with NCI-H226 lung. Also, the GI50 in the test with TK-10 renal is 26.2 µM; in the test with A549 NSCLC it was 39.8 µM; in the test with 786-0 renal, 1.96 µM; with NCI/ADR-RES ovarian it was > 69.8 µM. In addition, the TGI with U251 CNS is 3.22 µM; in the test with MDA-MB-231 breast, 7.76 µM; in the test on OVCAR-3 ovarian, 33.8 µM; with MALME-3M melanoma it was 3.76 µM; in the test with HCC-2998 colon, 32.1 µM; in the test on NCI-H226 lung, > 80.4 µM. Moreover, the TGI in the test with TK-10 renal was 54.8 µM; in the test with A549 NSCLC, > 100 µM; in the test on 786-0 renal it was 5.43 µM; in the test with NCI/ADR-RES ovarian, > 100 µM.
